Reference: ChEMBL document CHEMBL1275440, “In vitro activity of telavancin against resistant gram-positive bacteria” (2008)
Converted amounts (≈) assume the structure as drawn.

Key:
Assay type in all cases: functional
Enterococcus faecalis [1] = assay: Antibacterial activity against Enterococcus faecalis ATCC 51575 assessed as bacterial count at 8 ug/ml after 4 hrs by time-kill assay
Streptococcus pyogenes [2] = assay: Antibacterial activity against Streptococcus pyogenes MED 2040 assessed as bacterial count at 2 ug/ml after 2 hrs by time-kill assay
Enterococcus faecalis [3] = assay: Antibacterial activity against Enterococcus faecalis ATCC 51575 assessed as bacterial count at 8 ug/ml after 8 hrs by time-kill assay
Staphylococcus aureus [4] = assay: Antibacterial activity against methicillin resistant Staphylococcus aureus MED 1805 bloodstream isolate assessed as bacterial count at 1 ug/ml after 8 hrs by time-kill assay
Streptococcus pneumoniae [5] = assay: Antibacterial activity against multidrug resistant Streptococcus pneumoniae MED 1090 assessed as bacterial count at 0.03 ug/ml after 4 hrs by time-kill assay
Streptococcus agalactiae [6] = assay: (§1) Antibacterial activity against Streptococcus agalactiae MED 2038 assessed as bacterial count at […] after 2 hrs by time-kill assay
Staphylococcus aureus [7] = assay: Antibacterial activity against methicillin resistant Staphylococcus aureus MED 2028 osteomyelitis isolate assessed as bacterial count at 8 ug/ml after 8 hrs by time-kill assay
Staphylococcus aureus [8] = assay: Antibacterial activity against methicillin resistant Staphylococcus aureus MED 2028 osteomyelitis isolate assessed as bacterial count at 8 ug/ml after 2 hrs by time-kill assay
Staphylococcus aureus [9] = assay: Antibacterial activity against methicillin resistant Staphylococcus aureus MED 2028 osteomyelitis isolate assessed as bacterial count at 1 ug/ml after 4 hrs by time-kill assay
Staphylococcus aureus [10] = assay: Antibacterial activity against methicillin resistant Staphylococcus aureus MED 2028 osteomyelitis isolate assessed as bacterial count at 4 ug/ml after 2 hrs by time-kill assay
Streptococcus pyogenes [11] = assay: Antibacterial activity against Streptococcus pyogenes MED 2040 assessed as bacterial count at 8 ug/ml after 24 hrs by time-kill assay
Staphylococcus aureus [12] = assay: Antibacterial activity against methicillin resistant Staphylococcus aureus MED 1805 bloodstream isolate assessed as bacterial count at 16 ug/ml after 2 hrs by time-kill assay
Staphylococcus capitis = assay: Antibacterial activity against methicillin resistant coagulase-negative Staphylococcus capitis clinical isolate by broth microdilution method
Streptococcus pneumoniae [13] = assay: Antibacterial activity against multidrug resistant Streptococcus pneumoniae MED 1090 assessed as bacterial count at […] after 2 hrs by time-kill assay
Streptococcus agalactiae [14] = assay: Antibacterial activity against Streptococcus agalactiae MED 2038 assessed as bacterial count at 2 ug/ml after 2 hrs by time-kill assay
Streptococcus pyogenes [15] = assay: (§2) Antibacterial activity against Streptococcus pyogenes MED 2040 assessed as bacterial count at […] after 2 hrs by time-kill assay
Streptococcus agalactiae [16] = assay: as §1; remark: listed apart in the source
Streptococcus pyogenes [17] = assay: as §2; remark: listed apart in the source
[18] = system: Staphylococcus epidermidis; assay: Antibacterial activity against methicillin resistant Staphylococcus epidermidis clinical isolate by broth microdilution method
Streptococcus agalactiae [19] = assay: Antibacterial activity against Streptococcus agalactiae MED 2038 assessed as bacterial count at 0.5 ug/ml after 8 hrs by time-kill assay
Streptococcus agalactiae [20] = assay: Antibacterial activity against Streptococcus agalactiae MED 2038 assessed as bacterial count at […] after 4 hrs by time-kill assay
Enterococcus faecalis [21] = assay: Antibacterial activity against Enterococcus faecalis ATCC 51575 assessed as bacterial count at 8 ug/ml after 2 hrs by time-kill assay
Streptococcus agalactiae [22] = assay: Antibacterial activity against Streptococcus agalactiae MED 2038 assessed as bacterial count at 8 ug/ml after 8 hrs by time-kill assay
Streptococcus pyogenes [23] = assay: Antibacterial activity against Streptococcus pyogenes MED 2040 assessed as bacterial count at 0.5 ug/ml after 2 hrs by time-kill assay

## CCCCCCCCCCNCCN[C@@]1(C)C[C@H](O[C@H]2[C@H](Oc3c4cc5cc3Oc3ccc(cc3Cl)[C@@H](O)[C@@H](NC(=O)[C@@H](CC(C)C)NC)C(=O)N[C@@H](CC(N)=O)C(=O)N[C@H]5C(=O)N[C@H]3C(=O)N[C@H](C(=O)N[C@H](C(=O)O)c5cc(O)c(CNCP(=O)(O)O)c(O)c5-c5cc3ccc5O)[C@H](O)c3ccc(c(Cl)c3)O4)O[C@H](CO)[C@@H](O)[C@@H]2O)O[C@@H](C)[C@H]1O [TELAVANCIN]
Enterococcus faecalis [1]
  log10CFU/ml: 0.2
Streptococcus pyogenes [2]
  log10CFU/ml: 1.8
Enterococcus faecalis [3]
  log10CFU/ml: 0.5
Staphylococcus aureus [4]
  log10CFU/ml: 3.2
Streptococcus pneumoniae [5]
  log10CFU/ml: 2.7
Streptococcus agalactiae [6]
  log10CFU/ml: 1
Staphylococcus aureus [7]
  log10CFU/ml: 3.4
Staphylococcus aureus [8]
  log10CFU/ml: 0.4
Staphylococcus aureus [9]
  log10CFU/ml: 1.3
Staphylococcus aureus [10]
  log10CFU/ml: 0.7
Streptococcus pyogenes [11]
  log10CFU/ml: 2.7
Staphylococcus aureus [12]
  log10CFU/ml: 0.7
Staphylococcus capitis
  MIC50: 0.5 µg/mL (≈ 0.285 µM)
  MIC90: 1 µg/mL (≈ 0.57 µM)
Streptococcus pneumoniae [13]
  log10CFU/ml: 1.1
Streptococcus agalactiae [14]
  log10CFU/ml: 0.8
Streptococcus pyogenes [15]
  log10CFU/ml: 0.4
Streptococcus agalactiae [16]
  log10CFU/ml: 1
Streptococcus pyogenes [17]
  log10CFU/ml: 0.7
[18]
  MIC50: 0.5 µg/mL (≈ 0.285 µM)
  MIC90: 1 µg/mL (≈ 0.57 µM)
Streptococcus agalactiae [19]
  log10CFU/ml: 1.6
Streptococcus agalactiae [20]
  log10CFU/ml: 0.9
Enterococcus faecalis [21]
  log10CFU/ml: 0.2
Streptococcus agalactiae [22]
  log10CFU/ml: 1.8
Streptococcus pyogenes [23]
  log10CFU/ml: 0.9
